Tested on: subjects with moderate-to-severe plaque psoriasis
Experiment: Safety, adverse events, Example 2 through Week 56
Assay type: in vivo, human
Source text: The LTE safety analysis was based on randomized participants in Example who entered the present long-term extension study and received at least one dose of study intervention (including a partial dose) during the study period.

[1] = 25 mg BID, Week 16 through Week 56
[2] = 25 mg BID, LTE Safety analysis set

CC(=O)NCCCC[C@@H]1NC(=O)[C@H](Cc2c[nH]c3c(C)cccc23)NC(=O)[C@H]([C@@H](C)O)NC(=O)[C@H](CC(N)=O)NC(=O)[C@@H](NC(C)=O)C(C)(C)SSC(C)(C)[C@@H](C(=O)N[C@@H](Cc2ccc(OCCN)cc2)C(=O)N[C@@H](Cc2ccc3ccccc3c2)C(=O)NC2(C(=O)N[C@@H](CCC(=O)O)C(=O)N[C@@H](CC(N)=O)C(=O)N[C@@H](Cc3cccnc3)C(=O)N(C)CC(N)=O)CCOCC2)NC1=O [IL-23 receptor antagonist peptide, Ac-[Pen]*-N-T-[W(7-Me)]-[Lys(Ac)]-[Pen]*-Phe[4-(2-aminoethoxy)]-[2-Nal]-[THP]-E-N-[3-Pal]-Sarc-NH2 (*[Pen]-[Pen]* formdisulfidebond)]
Subjects with Bronchitis bacterial: 0
Number of subjects with treatment-emergent AE: Cholelithiasis [1]: 0
Number of subjects with treatment-emergent AE: Ear and labyrinth disorders [1]: 0
Number of subjects with treatment-emergent AE: Endocrine disorders [1]: 1
Number of subjects with treatment-emergent AE: Eye disorders [1]: 1
Number of subjects with treatment-emergent AE: Eyelid skin dryness [1]: 1
Number of subjects with treatment-emergent AE: Goiter [1]: 1
Number of subjects with treatment-emergent AE: Hepatobiliary disorders [1]: 0
Number of subjects with treatment-emergent AE: Hypertransaminasemia [1]: 0
Number of subjects with treatment-emergent AE: Immune system disorders [1]: 0
Number of subjects with treatment-emergent AE: Insomnia [1]: 1
Number of subjects with treatment-emergent AE: Ocular cyst [1]: 0
Number of subjects with treatment-emergent AE: Psychiatric disorders [1]: 1
Number of subjects with treatment-emergent AE: Retinal vein occlusion [1]: 0
Number of subjects with treatment-emergent AE: Seasonal allergy [1]: 0
Number of subjects with treatment-emergent AE: Vertigo [1]: 0
Subjects with treatment-emergent AE: Endocrine disorders (%) [1]: (2.5%)
Subjects with treatment-emergent AE: Eye disorders (%) [1]: (2.5%)
Subjects with treatment-emergent AE: Eyelid skin dryness (%) [1]: (2.5%)
Subjects with treatment-emergent AE: Goiter (%) [1]: (2.5%)
Subjects with treatment-emergent AE: Insomnia (%) [1]: (2.5%)
Subjects with treatment-emergent AE: Psychiatric disorders (%) [1]: (2.5%)
Subjects with treatment-emergent AE: Ventricular dysfunction (%) [1]: (2.5%)
Subjects with 1 or more Serious Infections and infestations [2]: 0
Subjects with adverse event: Alanine aminotransferase increased [2]: 0
Subjects with adverse event: Arthralgia [2]: 0
Subjects with adverse event: Aspartate aminotransferase increased [2]: 0
Subjects with adverse event: Vomiting [2]: 0
Subjects with serious adverse event: Cerebrovascular accident [2]: 0
Subjects with serious adverse event: Coronary artery disease [2]: 0
Subjects with serious adverse event: Diverticulitis [2]: 0
Subjects with serious adverse event: Foot deformity [2]: 0
Subjects with serious adverse event: Intervertebral disc protrusion [2]: 0
Subjects with serious adverse event: Non-cardiac chest pain [2]: 0
Subjects with serious adverse event: Uterine leiomyoma [2]: 0
Subjects with AE leading to discontinuation: Alanine aminotransferase increased (25 mg BID, Week 16-56): 0
Subjects with AE leading to discontinuation: Aspartate aminotransferase increased (25 mg BID, Week 16-56): 0
Subjects with AE leading to discontinuation: Ear and labyrinth disorders (25 mg BID, Week 16-56): 0
Subjects with AE leading to discontinuation: Gamma-glutamyltransferase increased (25 mg BID, Week 16-56): 0
Subjects with AE leading to discontinuation: Investigations (25 mg BID, Week 16-56): 0
Subjects with AE leading to discontinuation: Vertigo (25 mg BID, Week 16-56): 0
Subjects with AE leading to discontinuation: Vomiting (25 mg BID, Week 16-56): 0
Subjects with COVID-19 associated AE of interest: SARS-CoV-2 test positive (25 mg BID, Week 16-56): 0
Subjects with treatment-emergent AE: Alanine aminotransferase increased (25 mg BID, Week 16-56): 0
Subjects with treatment-emergent AE: Arthralgia (25 mg BID, Week 16-56): 0
Subjects with treatment-emergent AE: Aspartate aminotransferase increased (25 mg BID, Week 16-56): 0
Subjects with treatment-emergent AE: Vomiting (25 mg BID, Week 16-56): 0
Subjects with treatment-emergent serious AE: Cerebrovascular accident (25 mg BID, Week 16-56): 0
Subjects with treatment-emergent serious AE: Coronary artery disease (25 mg BID, Week 16-56): 0
Subjects with treatment-emergent serious AE: Diverticulitis (25 mg BID, Week 16-56): 0
Subjects with treatment-emergent serious AE: Foot deformity (25 mg BID, Week 16-56): 0
Subjects with treatment-emergent serious AE: General disorders and administration site conditions (25 mg BID, Week 16-56): 0
Subjects with treatment-emergent serious AE: Infections and infestations (25 mg BID, Week 16-56): 0
Subjects with treatment-emergent serious AE: Intervertebral disc protrusion (25 mg BID, Week 16-56): 0
Subjects with treatment-emergent serious AE: Musculoskeletal and connective tissue disorders (25 mg BID, Week 16-56): 0
Subjects with treatment-emergent serious AE: Neoplasms benign, malignant and unspecified (incl cysts and polyps) (25 mg BID, Week 16-56): 0
Subjects with treatment-emergent serious AE: Nervous system disorders (25 mg BID, Week 16-56): 0
Subjects with treatment-emergent serious AE: Non-cardiac chest pain (25 mg BID, Week 16-56): 0
Subjects with treatment-emergent serious AE: Uterine leiomyoma (25 mg BID, Week 16-56): 0
Acrochordon: % of subjects (25 mg BID, through Week 56): (2.4%)
Acrochordon: number of subjects (25 mg BID, through Week 56): 1
Actinic keratosis: number of subjects (25 mg BID, through Week 56): 0
Alopecia: number of subjects (25 mg BID, through Week 56): 0
Asthenia: % of subjects (25 mg BID, through Week 56): (2.4%)
Asthenia: number of subjects (25 mg BID, through Week 56): 1
Asthma: number of subjects (25 mg BID, through Week 56): 0
Atrioventricular block first degree: number of subjects (25 mg BID, through Week 56): 0
Basal cell carcinoma: number of subjects (25 mg BID, through Week 56): 0
Blood and lymphatic system disorders: number of subjects (25 mg BID, through Week 56): 0
Bronchitis chronic: number of subjects (25 mg BID, through Week 56): 0
Bundle branch block right: number of subjects (25 mg BID, through Week 56): 0
Cardiac disorders: % of subjects (25 mg BID, through Week 56): (2.4%)
Cardiac disorders: number of subjects (25 mg BID, through Week 56): 1
Chills: % of subjects (25 mg BID, through Week 56): (2.4%)
Chills: number of subjects (25 mg BID, through Week 56): 1
Cholelithiasis: number of subjects (25 mg BID, through Week 56): 0
Chronic obstructive pulmonary disease: number of subjects (25 mg BID, through Week 56): 0
Coronary artery disease: number of subjects (25 mg BID, through Week 56): 0
Cough: number of subjects (25 mg BID, through Week 56): 0
Decreased appetite: number of subjects (25 mg BID, through Week 56): 0
Depression: number of subjects (25 mg BID, through Week 56): 0
Dermal cyst: number of subjects (25 mg BID, through Week 56): 0
Dermatitis acneiform: number of subjects (25 mg BID, through Week 56): 0
Dermatitis contact: % of subjects (25 mg BID, through Week 56): (2.4%)
Dermatitis contact: number of subjects (25 mg BID, through Week 56): 1
Diabetes mellitus: % of subjects (25 mg BID, through Week 56): (2.4%)
Diabetes mellitus: number of subjects (25 mg BID, through Week 56): 1
Diffuse alopecia: number of subjects (25 mg BID, through Week 56): 0
Dysuria: number of subjects (25 mg BID, through Week 56): 0
Ear and labyrinth disorders: number of subjects (25 mg BID, through Week 56): 0
Endocrine disorders: % of subjects (25 mg BID, through Week 56): (2.4%)
Endocrine disorders: number of subjects (25 mg BID, through Week 56): 1
Eye disorders: % of subjects (25 mg BID, through Week 56): (2.4%)
Eye disorders: number of subjects (25 mg BID, through Week 56): 1
Eyelid skin dryness: % of subjects (25 mg BID, through Week 56): (2.4%)
Eyelid skin dryness: number of subjects (25 mg BID, through Week 56): 1
Fatigue: number of subjects (25 mg BID, through Week 56): 0
General disorders and administration site conditions: % of subjects (25 mg BID, through Week 56): (4.9%)
General disorders and administration site conditions: number of subjects (25 mg BID, through Week 56): 2
Goiter: % of subjects (25 mg BID, through Week 56): (2.4%)
Goiter: number of subjects (25 mg BID, through Week 56): 1
Haemochromatosis: number of subjects (25 mg BID, through Week 56): 0
Hand dermatitis: number of subjects (25 mg BID, through Week 56): 0
Hematuria: number of subjects (25 mg BID, through Week 56): 0
Hepatobiliary disorders: number of subjects (25 mg BID, through Week 56): 0
Hypercholesterolemia: number of subjects (25 mg BID, through Week 56): 0
Hyperglycemia: number of subjects (25 mg BID, through Week 56): 0
Hyperlipidemia: % of subjects (25 mg BID, through Week 56): (2.4%)
Hyperlipidemia: number of subjects (25 mg BID, through Week 56): 1
Hypertension: % of subjects (25 mg BID, through Week 56): (4.9%)
Hypertension: number of subjects (25 mg BID, through Week 56): 2
Hypertransaminasemia: number of subjects (25 mg BID, through Week 56): 0
Hypertriglyceridemia: number of subjects (25 mg BID, through Week 56): 0
Hypoacusis: number of subjects (25 mg BID, through Week 56): 0
Immune system disorders: number of subjects (25 mg BID, through Week 56): 0
Influenza like illness: % of subjects (25 mg BID, through Week 56): (2.4%)
Influenza like illness: number of subjects (25 mg BID, through Week 56): 1
Insomnia: % of subjects (25 mg BID, through Week 56): (2.4%)
Insomnia: number of subjects (25 mg BID, through Week 56): 1
Intertrigo: number of subjects (25 mg BID, through Week 56): 0
